Experimental data published in patent US7273880B2, “Selective NPY (Y5) antagonists” (H. Lunbeck A/S, priority 1999, dated 2007).

Experiments:
[1] = biological target: T1, human Y5 receptor (hNPY-5) (Homo sapiens, UniProt Q15761); assay: Radioligand binding to membranes, cloned human Y5 receptor; conditions: cloned human NPY Y5 receptor, radioligand competition binding; Tables 1-3; read-out: Ki, nM hNPY-5
T1 construct: expressed in transfected cells; host or cells: mouse fibroblast LM(tk-) cells, e.g. L-hY5-7 (ATCC CRL-11995)
T1 sequence (Q15761 1-445): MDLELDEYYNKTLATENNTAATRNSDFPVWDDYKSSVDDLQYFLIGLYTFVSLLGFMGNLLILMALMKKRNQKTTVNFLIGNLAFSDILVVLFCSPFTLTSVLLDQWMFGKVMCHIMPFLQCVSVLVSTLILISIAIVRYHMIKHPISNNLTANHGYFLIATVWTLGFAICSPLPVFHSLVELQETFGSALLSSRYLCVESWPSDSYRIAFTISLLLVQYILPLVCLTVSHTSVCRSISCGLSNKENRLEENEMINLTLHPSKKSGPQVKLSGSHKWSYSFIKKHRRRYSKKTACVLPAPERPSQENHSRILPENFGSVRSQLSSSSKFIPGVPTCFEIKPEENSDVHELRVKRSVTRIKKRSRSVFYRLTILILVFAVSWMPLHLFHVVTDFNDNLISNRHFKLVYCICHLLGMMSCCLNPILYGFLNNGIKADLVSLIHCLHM
Outline: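 Competition binding on membranes from stably transfected 293 or LM(tk-) cells, with 0.08 nM ¹²⁵I-PYY in pH 7.4 HEPES buffer plus 0.1% BSA, 120 min at 30 °C, filtration and counting. Nonspecific binding defined by 300 nM human NPY, or 100 nM human PP for Y4; nonlinear regression.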

[2] = biological target: hNPY-1,2,4 (human Y1, Y2, Y4 receptors); assay: Radioligand binding to membranes, cloned human Y1, Y2 and Y4 receptors; conditions: one bound given for all three
Method: Binding of the compounds of the present invention to human Y1, Y2, Y4, and Y5 receptors was evaluated using stably transfected 293 or LM(tk-) cells as described above. Stably transfected cell lines which may be used for binding assays include, for example, for the human Y1 receptor, 293-hY1-5 (deposited Jun. 4, 1996, under ATCC Accession No. CRL-12121), for the human Y2 receptor, 293-hY2-10 (deposited Jan. 27, 1994, under ATCC Accession No. CRL-11537), for the human Y4 receptor, L-hY4-3 (deposited Jan. 11, 1995, under ATCC Accession No. CRL-11779), and for human Y5 receptor, L-hY5-7 (deposited Nov. 15, 1995, under ATCC Accession No. CRL-11995). These cell lines were deposited with the American Type Culture Collection (ATCC), 10801 University Blvd., Manassas, Va. 20110-2209, U.S.A. under the provisions of the Budapest Treaty for the International Recognition of the Deposit of Microorganisms for the Purposes of Patent Procedure.
Membranes were harvested from COS-7 cells 48 hours after transient transfection. Adherent cells were washed twice in ice-cold phosphate buffered saline (138 mM NaCl, 8.1 mM Na2HPO4, 2.5 mM KCl, 1.2 mM KH2PO4, 0.9 mM CaCl2, 0.5 mM MgCl2, pH 7.4) and lysed by sonication in ice-cold sonication buffer (20 mM Tris-HCl, 5 mM EDTA, pH 7.7). Large particles and debris were cleared by low speed centrifugation (200×g, 5 min, 4° C.). Membranes were collected from the supernatant fraction by centrifugation (32,000×g, 18 min, 4° C.), washed with ice-cold hypotonic buffer, and collected again by centrifugation (32,000×g, 18 min, 4° C.). The final membrane pellet was resuspended by sonication into a small volume of ice-cold binding buffer (˜1 ml for every 5 plates: 10 mM NaCl, 20 mM HEPES, 0.22 mM KH2PO4, 1.26 mM CaCl2, 0.81 mM MgSO4, pH 7.4). Protein concentration was measured by the Bradford method (Bradford, 1976) using Bio-Rad Reagent, with bovine serum albumin as a standard. Membranes were held on ice for up to one hour and used fresh, or flash-frozen and stored in liquid nitrogen.
Membranes were prepared similarly from 293, LM(tk-), and NIH-3T3 cells. To prepare membranes from baculovirus infected cells, 2×10^7 Sf21 cells were grown in 150 mm tissue culture dishes and infected with a high-titer stock of hY5BB3. Cells were incubated for 2-4 days at 27° C., no CO2 before harvesting and membrane preparation as described above.
Membrane suspensions were diluted in binding buffer supplemented with 0.1% bovine serum albumin to yield an optimal membrane protein concentration so that ^125I-PYY (or alternative radioligand such as ^125I-NPY, ^125I-PYY3-36, or ^125I-[Leu^31Pro^34]PYY) bound by membranes in the assay was less than 10% of ^125I-PYY (or alternative radioligand) delivered to the sample (100,000 dpm/sample=0.08 nM for competition binding assays). ^125I-PYY (or alternative radioligand) and peptide competitors were also diluted to desired concentrations in supplemented binding buffer. Individual samples were then prepared in 96-well polypropylene microtiter plates by mixing 125I-PYY (25 μL) (or alternative radioligand), competing peptides or supplemented binding buffer (25 μL), and finally, membrane suspensions (200 μL). Samples were incubated in a 30° C. water bath with constant shaking for 120 min. Incubations were terminated by filtration over Whatman GF/C filters (pre-coated with 1% polyethyleneimine and air-dried before use), followed by washing with 5 mL of ice-cold binding buffer. Filter-trapped membranes were impregnated with MeltiLex solid scintillant (Wallac, Turku, Finland) and counted for ^125I in a Wallac Beta-Plate Reader. Alternatively, incubations were carried out in GF/C filter plates (pre-coated with 1% polyethyleneimine and air-dried before use), followed by vacuum filtration and three washes of 300 μL of ice-cold binding buffer. 50 μL of UltimaGold (Packard) scintillant were added and counted for ^125I in a Wallac MicroBeta Trilux. […]

melting point | Ki [1] | Ki [2] | SMILES
186 to 188 °C | 15.4 nM | > 10000 nM | COC[C@@H]1CCCN1S(=O)(=O)c1ccc(Nc2nc3c(s2)CCCc2ccc(F)cc2-3)cc1 [Example 9, 1-Aza-9-fluoro-4,5-dihydro-2-(4-((2(S)-methoxy-methyl)-pyrrolidine-1-yl)sulfonyl)phenylamino-3-thia-benzo[e]azulene]
 | 2.9 nM | > 10000 nM | NS(=O)(=O)NCCCCCNc1nc2c(s1)CCCc1ccc(F)cc1-2 [Example 25, 1-Aza-9-fluoro-4,5-dihydro-2-(5-aminosulfonylamino)-pentylamino-3-thia-benzo[e]azulene]
 | 13.1 nM | > 10000 nM | O=S(=O)(NC[C@H]1CC[C@H](Nc2nc3c(s2)CCCc2ccc(F)cc2-3)CC1)c1ccccc1F [Example 26, trans-1-aza-9-fluoro-2-(4-(2-fluorophenyl)sulfonyl-amino-methyl)cyclohexylamino-4,5-dihydro-3-thia-benzo [e]-azulene]
 | 9.2 nM | > 10000 nM | COc1ccc(S(=O)(=O)NC[C@H]2CC[C@H](Nc3nc4c(s3)CCCc3ccc(F)cc3-4)CC2)cc1 [Example 27, trans-1-Aza-9-fluoro-4,5-dihydro-2-{4-(4-methoxy-phenyl)-sulfonylaminomethyl}cyclohexylamino-3-thia-benzo[e]azulene]
 | 4 nM | > 10000 nM | O=S(=O)(NC[C@H]1CC[C@H](Nc2nc3c(s2)CCCc2ccc(F)cc2-3)CC1)c1c(F)cccc1F [Example 28, trans-N2-(4-(2,6-Difluorophenylsulfonyl)aminomethyl)-cyclohexyl-9-fluoro-5,6-dihydro-4H-benzo[6,7]-cyclohepta-[d][1,3]-thiazol-2-amine]
 | 10.3 nM | > 10000 nM | O=S(=O)(Cc1ccccc1)NC[C@H]1CC[C@H](Nc2nc3c(s2)CCCc2ccc(F)cc2-3)CC1 [Example 29, trans-1-Aza-2-{4-benzylsulfonylaminomethyl}-cyclohexylamino-9-fluoro-4,5-dihydro-3-thia-benzo[e]-azulene]
 | 4.2 nM | > 10000 nM | O=S(=O)(NC[C@H]1CC[C@H](Nc2nc3c(s2)CCCc2ccc(F)cc2-3)CC1)c1cccs1 [Example 30, trans-N2-(4-(2-Thienylsulfonyl)aminomethyl)-cyclohexyl-9-fluoro-5,6-dihydro-4H-benzo[6,7]-cyclohepta[d][1,3]thiazol-2-amine]
 | 3.9 nM | > 10000 nM | CCS(=O)(=O)NC[C@H]1CC[C@H](Nc2nc3c(s2)CCCc2ccc(F)cc2-3)CC1 [Example 31, trans-N2-(4-Ethylsulfonylaminomethyl)cyclohexyl-9-fluoro-5,6-dihydro-4H-benzo[6,7]cyclohepta[d][1,3]-thiazol-2-amine]
 | 2.9 nM | > 10000 nM | Cn1cnc(S(=O)(=O)NC[C@H]2CC[C@H](Nc3nc4c(s3)CCCc3ccc(F)cc3-4)CC2)c1 [Example 32, trans-1-Aza-9-fluoro-4,5-dihydro-2-{4-(1-methylimidazolyl-4-yl)sulfonylaminomethyl}cyclohexyl-amino-3-thia-benzo[e]azulene]
 | 6.8 nM | > 10000 nM | Cc1noc(C)c1S(=O)(=O)NC[C@H]1CC[C@H](Nc2nc3c(s2)CCCc2ccc(F)cc2-3)CC1 [Example 33, trans-1-Aza-9-fluoro-4,5-dihydro-2-{4-(3,5-dimethylisoxazol-4-yl)sulfonylaminomethyl}cyclohexyl-amino-3-thia-benzo[e]azulene]
 | 4.8 nM | > 10000 nM | O=S(=O)(CC(F)(F)F)NCCCCNc1nc2c(s1)CCCc1ccc(F)cc1-2 [Example 39, 1-Aza-9-fluoro-4,5-dihydro-2-(4-(2,2,2-trifluoroethyl)-sulfonylamino)butylamino-3-thia-benzo[e]azulene]
 | 19.5 nM | > 10000 nM | O=S(=O)(NC[C@H]1CC[C@H](Nc2nc3c(s2)CCCc2ccc(F)cc2-3)CC1)c1ccc(F)c(F)c1 [Example 40, trans-1-Aza-9-fluoro-2-{4-(3,4-difluorophenyl)-sulfonyl-aminomethyl}cyclohexylamino-4,5-dihydro-3-thia-benzo[e]azulene]
 | 3.9 nM | > 10000 nM | O=S(=O)(N[C@H]1CC[C@H](CNc2nc3c(s2)CCCc2ccc(F)cc2-3)CC1)c1ccccc1F [Example 42, trans-1-Aza-9-fluoro-2-{4-(2-fluoro)phenylsulfonyl-amino}-cyclohexylmethylamino-4,5-dihydro-3-thia-benzo[e]azulene]
 | 15.1 nM | > 10000 nM | COc1ccc(C)cc1S(=O)(=O)NC[C@H]1CC[C@H](Nc2nc3c(s2)CCOc2ccccc2-3)CC1 [Example 48, trans-1-Aza-4,5-dihydro-2-{4-(2-methoxy-5-methyl)phenyl-sulfonylaminomethyl}cyclohexylamino-6-oxa-3-thia-benzo[e]azulene]
 | 11.9 nM | > 10000 nM | O=S(=O)(N[C@H]1CC[C@H](Nc2nc3c(s2)CCCc2ccc(F)cc2-3)CC1)c1cccnc1 [Example 54, trans-1-Aza-9-fluoro-4,5-dihydro-2-(4-(3-pyridyl-sulfonylamino)cyclohexyl)amino-3-thia-benzo[e]azulene]
 | 5.2 nM | > 10000 nM | CCN(CC)S(=O)(=O)NC[C@H]1CC[C@H](Nc2nc3c(s2)CCSc2ccccc2-3)CC1 [Example 102, N′-{[4-(4,5-Dihydrobenzo[2,3]thiepino[4,5-d][1,3]thiazol-2-ylamino)cyclohexyl]methyl}-N,N-diethylsulfamide]
 | 3.7 nM | > 10000 nM | CCN(CC)S(=O)(=O)NCCCCCNc1nc2c(s1)CCSc1ccccc1-2 [Example 103, N′-[5-(4,5-Dihydrobenzo[2,3]thiepino[4,5-d][1,3]thiazol-2-ylamino)pentyl]-N,N-diethylsulfamide]
 | 3.2 nM | > 10000 nM | CCN(CC)S(=O)(=O)NCCCCNc1nc2c(s1)CCSc1ccccc1-2 [Example 104, N′-[4-(4,5-Dihydrobenzo[2,3]thiepino[4,5-d][1,3]thiazol-2-ylamino)butyl]-N,N-diethylsulfamide]
 | 91 nM | > 10000 nM | CC(C)(C)OC(=O)NCCCCCNc1nc2c(s1)CCSc1ccc(F)cc1-2 [Example 105, tert-Butyl N-{5-[(9-fluoro-4,5-dihydrobenzo[2,3]-thiepino[4,5-d][1,3]thiazol-2-yl)amino]pentyl}-carbamate]
